The CheMixHub drug solubility set

Assay: xn = mol fraction of the nth substance listed, in the solute-free solvent

O=C1CCC(C(=O)N2CSCC2C(=O)O)N1 (centres undefined) + CO + CCCCOC(C)=O
solubility (g/100 g solution)
Conditions	278.15 K	283.15 K	288.15 K	293.15 K	298.15 K	303.15 K	308.15 K	313.15 K	318.15 K	323.15 K
x2 = 0.2871	0.0109	0.0159	0.0239	0.0358	0.0528	0.0759	0.105	0.152	0.213	0.292
x2 = 0.4754	0.017	0.025	0.0349	0.0468	0.0628	0.0977	0.147	0.219	0.325	0.472
x2 = 0.6084	0.0271	0.0398	0.0597	0.0838	0.122	0.155	0.227	0.342	0.501	0.724
x2 = 0.7073	0.0401	0.065	0.104	0.162	0.249	0.378	0.564	0.832	1.2	1.68
x2 = 0.7838	0.0447	0.0729	0.117	0.184	0.287	0.432	0.65	0.964	1.4	1.95
x2 = 0.8446	0.0601	0.0995	0.148	0.234	0.363	0.542	0.949	1.23	1.59	2.33
x2 = 0.8943	0.635	0.752	0.898	0.997	1.19	1.36	1.59	1.88	2.15	2.57
x2 = 0.9355	0.674	0.824	0.969	1.11	1.26	1.5	1.8	2.04	2.4	2.85
x2 = 0.9703	0.793	0.937	1.12	1.28	1.52	1.75	2.06	2.36	2.82	3.31

Cc1ccc2cc(Br)ccc2n1 + CC(C)O + O
solubility (g/100 g solution)
Conditions	278.15 K	283.15 K	288.15 K	293.15 K	298.15 K	303.15 K	308.15 K	313.15 K	318.15 K	323.15 K
x2 = 0.03225	0.0479	0.0553	0.0644	0.0741	0.0853	0.0974	0.113	0.129	0.148	0.169
x2 = 0.06974	0.141	0.161	0.185	0.211	0.241	0.273	0.312	0.356	0.403	0.457
x2 = 0.1139	0.263	0.301	0.346	0.393	0.446	0.505	0.576	0.655	0.74	0.837
x2 = 0.1666	0.372	0.427	0.492	0.56	0.637	0.723	0.826	0.94	1.06	1.2
x2 = 0.2307	0.427	0.503	0.586	0.671	0.769	0.881	0.997	1.15	1.31	1.5
x2 = 0.3103	0.482	0.567	0.673	0.787	0.904	1.04	1.19	1.37	1.57	1.79
x2 = 0.4117	0.539	0.642	0.767	0.896	1.04	1.2	1.39	1.59	1.81	2.06
x2 = 0.5454	0.596	0.7	0.856	1.03	1.2	1.4	1.63	1.89	2.17	2.48
x2 = 0.7297	0.657	0.815	0.972	1.16	1.33	1.56	1.81	2.1	2.4	2.78

O=C1CCC(C(=O)N2CSCC2C(=O)O)N1 (centres undefined) + CO + CC(C)=O
solubility (g/100 g solution)
Conditions	278.15 K	283.15 K	288.15 K	293.15 K	298.15 K	303.15 K	308.15 K	313.15 K	318.15 K	323.15 K
x2 = 0.1676	0.03	0.0418	0.06	0.08	0.115	0.159	0.227	0.34	0.497	0.708
x2 = 0.3118	0.045	0.0699	0.101	0.147	0.241	0.346	0.532	0.773	1.12	1.54
x2 = 0.4372	0.0669	0.0956	0.145	0.224	0.317	0.432	0.62	–	1.24	1.72
x2 = 0.5471	0.74	0.834	0.94	1.08	1.19	1.33	1.48	1.67	1.88	2.12
x2 = 0.6444	0.813	0.929	1.04	1.2	1.37	1.58	1.81	2.07	2.37	2.73
x2 = 0.7311	0.964	1.09	1.21	1.38	1.56	1.76	1.99	2.24	2.54	2.94
x2 = 0.8087	1.07	1.14	1.29	1.48	1.69	1.92	2.19	2.49	2.82	3.21
x2 = 0.8788	1.02	1.15	1.28	1.48	1.69	1.92	2.18	2.49	2.81	3.18
x2 = 0.9422	0.998	1.13	1.25	1.42	1.64	1.87	2.14	2.43	2.77	3.13
